Among the data in patent publication US7423054B2, “Therapeutic pyrazolo[3,4-b]pyridines and indazoles” (Warner Lambert Company LLC, priority 2004, dated 2008) are inhibition in vivo and Ki values, retold here.

The subject of test [1] is capsaicin-induced mechanical allodynia. The test can be described thus: Rat model of capsaicin-induced mechanical allodynia (paw withdrawal threshold, Von Frey). The test is classed as in vivo. As to conditions: Rattus norvegicus, po, 2 h, male Sprague-Dawley rats, oral single dose 10 mg/kg, contralateral PWT at 2 hours after dose, mean of eight animals; read-out: % inhibition +/− SEM. As to the method:
In certain embodiments, the compounds of formula I may be assayed for their ability to alleviate capsaicin-induced mechanical allodynia in a rat (e.g., Sluka, K A, (2002) J of Neuroscience, 22(13): 5687-5693). For example, a rat model of capsaicin-induced mechanical allodynia) can be carried out as follows:
On day 0, male Sprague-Dawley rats (˜150 g) in the dark cycle are placed in suspended wire-bottom cages and allowed to acclimate for 0.5 h in a darkened, quiet room. The day 0 paw withdrawal threshold (PWT) is determined on the left hind paw by Von Frey hair assessment using the Dixon up and down method. After assessment, the plantar muscle of the right hind paw is injected with 100 μl capsaicin (0.25% in 10% ethanol, 10% Tween 80, in sterile saline). On day 6 the PWT of the left hindpaw (contralateral from injection site) is determined for each animal. Animals from the day 6 prereads with PWT≦11.7 g are considered allodynic responders and are regrouped so that each cage had similar mean PWT values. On day 7, responders are dosed (e.g., orally, intraperitoneally, and subcutaneously, etc.) with 10 ml/kg vehicle (0.5% HPMC(hydroxy-propylmethylcellulose)/0.2% Tween™ 80), or vehicle plus compound. The contralateral PWT values are determined at 2 hours (or at about the time corresponding to the estimated Cmax) after the single dose, with the investigator blinded to the dosing scheme. Those of skill in the art can determine the appropriate time to determine the contralateral PWT value (e.g., 1 hour, 2 hours, etc.).
For each animal, the day 6 PWT value is subtracted from the 2 hour PWT value to give a delta PWT value that represents the change in PWT due to the 2 hour drug treatment. In addition, the day 6 PWT is subtracted from the day 0 PWT to give the baseline window of allodynia present in each animal. To determine % inhibition of allodynia of each animal normalized for vehicle controls, the following formula is used: % Inhibition of Allodynia=100×(Delta PWT(drug)−mean Delta PWT(vehicle))/(Baseline−mean Delta PWT(vehicle)). Pharmaceutically Acceptable Salts and Solvates
Compounds of the present invention may be assayed for their ability to alleviate capsaicin-induced mechanical allodynia in a rat model (e.g., Sluka (2002) J of Neuroscience, 22(13)5687-5693). For example, a rat model of capsaicin-induced mechanical allodynia was carried out as follows:
On day 0, male Sprague-Dawley rats (˜150 g) in the dark cycle were placed in suspended wire-bottom cages and allowed to acclimate for 0.5 hour in a darkened, quiet room. The day 0 paw withdrawal threshold (PWT) was determined on the left hind paw by Von Frey hair assessment using the Dixon up and down method. After assessment, the plantar muscle of the right hind paw was injected with 100 μl capsaicin (0.25% (w/v) in 10% ethanol, 10% Tween 80, in sterile saline). On day 6 the PWT of the left hindpaw (contralateral from injection site) was determined for each animal. Animals from the day 6 prereads with PWT≦11.7 g were considered allodynic responders and were regrouped so that each cage had similar mean PWT values.
On day 7, responders were dosed subcutaneously with 30 mg of the compound of Example 7/kg body weight, 10 mg of the compound of the compound of Example 48/kg body weight, or with vehicle alone. The vehicle was phosphate buffered saline containing 2% Cremophor®) EL (BASF).
For the animals dosed with the compound of Example 7, the contralateral PWT values were determined at 2 hour after the single dose, with the investigator blinded to the dosing scheme.
For each animal, the day 6 PWT value was subtracted from the 2 hour PWT value for the 10 mg/kg doses to give a delta PWT value that represents the change in PWT due to the […] drug treatment. In addition, the day 6 PWT was subtracted from the day 0 PWT to give the baseline window of allodynia present in each animal. […]

The target in test [2] is T1, human norepinephrine transporter (hNET) (Homo sapiens, UniProt P23975).
T1 construct: expressed in transfected cells; host or cells: HEK-293 cells (membrane preparation)
T1 sequence (P23975 whole entry): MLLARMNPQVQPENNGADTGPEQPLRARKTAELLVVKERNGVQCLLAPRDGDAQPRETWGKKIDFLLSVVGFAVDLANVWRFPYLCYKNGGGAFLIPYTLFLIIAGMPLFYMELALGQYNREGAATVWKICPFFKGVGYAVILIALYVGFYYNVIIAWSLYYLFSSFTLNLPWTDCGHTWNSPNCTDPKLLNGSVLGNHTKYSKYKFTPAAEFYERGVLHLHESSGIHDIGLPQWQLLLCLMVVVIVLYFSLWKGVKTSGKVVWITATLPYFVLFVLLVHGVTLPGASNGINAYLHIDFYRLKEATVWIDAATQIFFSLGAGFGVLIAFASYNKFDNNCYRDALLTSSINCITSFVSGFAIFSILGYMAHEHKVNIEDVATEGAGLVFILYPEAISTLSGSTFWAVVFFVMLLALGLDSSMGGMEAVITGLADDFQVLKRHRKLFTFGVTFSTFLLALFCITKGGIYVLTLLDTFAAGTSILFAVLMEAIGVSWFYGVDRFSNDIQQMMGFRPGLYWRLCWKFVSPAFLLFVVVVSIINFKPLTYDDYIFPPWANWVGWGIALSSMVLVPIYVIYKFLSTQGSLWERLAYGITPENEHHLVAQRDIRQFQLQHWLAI
The test can be described thus: hNET receptor binding ([125I]-RTI-55 displacement, membranes of transfected HEK-293 cells). As to conditions: HEK-293 membranes, Ki from IC50 by Cheng-Prusoff, read-out: NET Ki. The gist of the method:
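Membranes from HEK-293 cells expressing human NET were incubated 90 min at room temperature with 50 pM [125I]-RTI-55 and compound (10^−5 to 10^−12 M) in Krebs-HEPES buffer, pH 7.4. Bound radioligand was counted after filtration, with nonspecific binding defined by 10 μM desipramine. IC50 was converted to Ki by Cheng-Prusoff.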

For test [3], the target named is T2, human serotonin transporter (hSERT) (Homo sapiens, UniProt P31645).
T2 construct: expressed in transfected cells; host or cells: HEK-293 cells (membrane preparation)
T2 sequence (P31645 whole entry): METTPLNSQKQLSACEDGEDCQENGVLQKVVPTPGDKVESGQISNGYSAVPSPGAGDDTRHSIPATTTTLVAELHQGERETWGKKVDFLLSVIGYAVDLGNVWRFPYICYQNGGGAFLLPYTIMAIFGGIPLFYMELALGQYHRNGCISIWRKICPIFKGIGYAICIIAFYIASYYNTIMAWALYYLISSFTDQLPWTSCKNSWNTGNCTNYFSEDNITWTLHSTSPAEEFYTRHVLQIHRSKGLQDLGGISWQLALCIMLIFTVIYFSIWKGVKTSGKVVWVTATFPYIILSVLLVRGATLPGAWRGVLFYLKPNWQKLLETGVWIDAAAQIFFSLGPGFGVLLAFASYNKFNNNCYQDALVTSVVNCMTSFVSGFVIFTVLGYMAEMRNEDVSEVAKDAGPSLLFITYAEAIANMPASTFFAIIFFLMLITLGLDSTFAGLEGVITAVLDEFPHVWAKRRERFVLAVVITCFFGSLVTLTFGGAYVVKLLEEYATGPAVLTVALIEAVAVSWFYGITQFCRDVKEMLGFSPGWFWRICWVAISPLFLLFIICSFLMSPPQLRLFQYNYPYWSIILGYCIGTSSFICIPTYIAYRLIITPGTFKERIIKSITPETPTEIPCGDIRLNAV
The test can be described thus: hSERT receptor binding ([125I]-RTI-55 displacement, membranes of transfected HEK-293 cells). The settings on record: HEK-293 membranes, Ki from IC50 by Cheng-Prusoff, read-out: SERT Ki. Put shortly: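 Membranes from HEK-293 cells expressing human SERT were incubated 90 min at room temperature in Krebs-HEPES (pH 7.4) with 50 pM [125I]-RTI-55 and compound (10^-12 to 10^-5 M), in duplicate. Nonspecific binding was defined with 10 μM citalopram. Ki from IC50 by Cheng-Prusoff.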

Where a name gives a salt, the structure may show the parent alone.

Take `Fc1ccc2c(c1)c(OCC1CCCNC1)nn2-c1ccccc1F` (racemic) [Example 57, (±)-5-Fluoro-1-(2-fluoro-phenyl)-3-(piperidin-3-ylmethoxy)-1H-indazole hydrochloride]: in test [1], the inhibition in vivo at 10 mg/kg was 26%. The values for the inhibition constant (Ki) in test [2] and in test [3] were 18.1 nM and 52.2 nM, respectively.

What is called Ki is the equilibrium dissociation constant of an inhibitor or competing ligand from its target.
